Columns and labels:
[1] = In vivo metabolic stability (radio-HPLC of urine, liver and kidney homogenates); design: species or system BALB/c mice; conditions: 1 h after injection
Protocol: The stability of [^61Cu]Cu-DOTAGA-PSMA-I&T and [^61Cu]Cu-NODAGA-PSMA-I&T was assessed by radio–reversed-phase high-performance liquid chromatography in urine and in liver and kidney homogenates from healthy BALB/c mice after injection of 100 µL/400 pmol/8–9 MBq of each radiotracer. Details are provided in the supplemental materials.

LNCaP cells = assay: Cellular uptake and distribution (surface-bound, internalized) in LNCaP cells; type: cell-based; conditions: 1 h, 37°C
Protocol: (§1) The lipophilicity of [^61Cu]Cu-DOTAGA-PSMA-I&T and [^61Cu]Cu-NODAGA-PSMA-I&T was assessed by determining the distribution coefficient in a 1:1 mixture of 1-octanol–to–phosphate-buffered saline at pH 7.4, in comparison with all reference radiotracers. Inhibitory concentration of 50% (IC50) was assessed by competition binding on lymph node carcinoma of the prostate (LNCaP) using ((S)-1-carboxy-5-(4-(-^125I-iodo-benzamido)pentyl)carbamoyl)-L-glutamic acid as the reference radioligand. Cellular uptake and distribution were assessed in LNCaP cells at 5, 15, 30, 60, and 120 min after exposure to the radioligand at 37°C, either alone or in the presence of 10 µM 2-(phosphonomethyl)pentanedioic acid to distinguish between specific and nonspecific uptake.
FIGURE 1. In vitro assessment in LNCaP cells after 1 h at 37°C. (A) Competition binding activity curves of ^natCu-DOTAGA-PSMA-I&T, ^natCu-NODAGA-PSMA-I&T, and ^natGa-PSMA-11 on LNCaP cells after 1 h of incubation on ice, using ((S)-1-carboxy-5-(4-(-^125I-iodo-benzamido)pentyl)carbamoyl)-L-glutamic acid ([^125I-BA]KuE) at concentration of 0.2 nM as reference radioligand. (B) Cellular uptake (surface-bound + internalized). Cell surface–bound and internalized fractions are indicated. Results represent mean ± SD of specific (total − nonspecific) uptake from minimum of 2 separate experiments, each in triplicate.

[2] = Stability of radiotracer at room temperature (radiochemical purity over time); type: physicochemical; conditions: 24 MBq/nmol, 4 h
Protocol: [^61Cu]Cu-DOTAGA-PSMA-I&T and [^61Cu]Cu-NODAGA-PSMA-I&T were synthesized with radiolabeling yield of more than 98% and radiochemical purity of more than 97% (radio–high-performance liquid chromatography analysis) at an apparent molar activity of 24 MBq/nmol. Thus, no purification was required after labeling. Although [^61Cu]Cu-DOTAGA-PSMA-I&T needed elevated temperature (95°C) and 15 min of reaction time, [^61Cu]Cu-NODAGA-PSMA-I&T was synthesized at room temperature within 5 min. After 4 h at room temperature, the radiochemical purity of [^61Cu]Cu-DOTAGA-PSMA-I&T dropped to approximately 90%, whereas it remained stable (∼97%) for [^61Cu]Cu-NODAGA-PSMA-I&T. All analytic data and quality control results are provided in Supplemental Figures 1 and 2 and in Supplemental Tables 1 and 2.
With inexpensive ^natNi as the starting material, highly pure ^61Cu could be produced with radionuclidic purity exceeding 99.99% at 12 h after synthesis (details on the production will be published elsewhere). The preparation of [^61Cu]Cu-NODAGA-PSMA-I&T was performed in widely used buffers at room temperature within 5 min. […] High labeling yields and suitable molar activities for clinical use eliminate the need for any purification step after labeling. […]

LNCaP xenografts = assay: Biodistribution in LNCaP xenografts; type: in vivo, mice
Protocol: All animal experiments were conducted in accordance with Swiss animal welfare laws and regulations under license number 30515 granted by the Veterinary Office, Department of Health, Canton Basel-Stadt, Switzerland. Male athymic nude-Foxn1^nu/Foxn1^+ mice (Envigo), 4–6 wk old, were inoculated subcutaneously on the shoulder with 10^7 LNCaP cells, freshly suspended in a 1:1 ratio of sterile minimum essential medium with basal medium Eagle and Matrigel. The tumors were allowed to grow to a volume of approximately 200 mm^3.
The biodistribution of [^61Cu]Cu-DOTAGA-PSMA-I&T and [^61Cu]Cu-NODAGA-PSMA-I&T (100 µL/200 pmol/2–3 MBq) was compared with that of [^68Ga]Ga-DOTAGA-PSMA-I&T, [^68Ga]Ga-NODAGA-PSMA-I&T, and [^68Ga]Ga-PSMA-11 (100 µL/200 pmol/3–5 MBq), as well as [^18F]PSMA-1007 (100 µL/70 pmol/15 MBq). This comparison was conducted at 1 h after injection for all radiotracers and at 4 h after injection for the ^61Cu-labeled tracers and [^18F]PSMA-1007. The specificity of the ^61Cu-labeled tracers was assessed at 1 h after injection by blocking studies with 2-(phosphonomethyl)pentanedioic acid (100 µL/1.3 µmol) being injected 3–5 min before the injection of the radiotracer.

[3] = Lipophilicity: distribution coefficient in 1:1 1-octanol/phosphate-buffered saline at pH 7.4; type: physicochemical
Protocol: as §1

[4] = 1 h after injection, blocking with 2-(phosphonomethyl)pentanedioic acid 1.3 µmol

In the case of `O=C([O-])CN1CCN(CC(=O)O)CCN(CC(=O)[O-])CCN(C(CCC(=O)N[C@H](Cc2ccc(O)c(I)c2)C(=O)N[C@H](Cc2ccccc2)C(=O)N[C@H](CCCCNC(=O)CCCCCCC(=O)NCCCC[C@H](NC(=O)N[C@@H](CCC(=O)O)C(=O)O)C(=O)O)C(=O)O)C(=O)O)CC1.[61Cu+2]` (stereo partly drawn) [[^61Cu]Cu-DOTAGA-PSMA-I&T, DOTAGA-(l-y)fk(sub-KuE)], the “Release of ^61Cu in the liver” value [1] is reported as “approximately 70%”, the “Cellular uptake (surface-bound + internalized)” value (LNCaP cells; specific uptake) is reported as 26.6% ± 1.3% and the Internalized fraction (LNCaP cells; % of applied activity) is reported as 13.3 ± 0.5%. For the same compound, the Surface-bound fraction (LNCaP cells; % of applied activity) was 13.4 ± 0.8%, the “Radiochemical purity after 4 h at room temperature” value [2] was “approximately 90%” and the “Biodistribution, Adrenals” value (LNCaP xenografts; 1 h after injection) was 9.35 ± 1.50 %IA/g. The “Biodistribution, Blood” value (LNCaP xenografts; 1 h after injection) was 2.06 ± 0.24 %IA/g, the “Biodistribution, Femur” value (LNCaP xenografts; 1 h after injection) was 2.31 ± 0.36 %IA/g and the “Biodistribution, Heart” value (LNCaP xenografts; 1 h after injection) was 3.73 ± 0.32 %IA/g. The “Biodistribution, Intestine” value (LNCaP xenografts; 1 h after injection) was 8.95 ± 0.62 %IA/g, the “Biodistribution, Kidneys” value (LNCaP xenografts; 1 h after injection) was 57.1 ± 6.3 %IA/g and the “Biodistribution, Liver” value (LNCaP xenografts; 1 h after injection) was 19.3 ± 3.3 %IA/g. For the same compound, the “Biodistribution, Lung” value (LNCaP xenografts; 1 h after injection) was 6.35 ± 0.35 %IA/g, the “Biodistribution, Muscles” value (LNCaP xenografts; 1 h after injection) was 1.00 ± 0.05 %IA/g and the “Biodistribution, Pancreas” value (LNCaP xenografts; 1 h after injection) was 2.82 ± 0.67 %IA/g. The “Biodistribution, Salivary glands” value (LNCaP xenografts; 1 h after injection) was 5.60 ± 1.39 %IA/g, the “Biodistribution, Spleen” value (LNCaP xenografts; 1 h after injection) was 4.64 ± 1.35 %IA/g and the “Biodistribution, Stomach” value (LNCaP xenografts; 1 h after injection) was 7.77 ± 0.62 %IA/g. For the same compound, the “Biodistribution, Tumor (tumor uptake)” value (LNCaP xenografts; 1 h after injection) was 6.06 ± 0.25 %IA/g, the Tumor-to-Adrenals ratio (LNCaP xenografts; 1 h after injection) was 0.66 ± 0.13 and the Tumor-to-Blood ratio (LNCaP xenografts; 1 h after injection) was 2.97 ± 0.23. The Tumor-to-Intestine ratio (LNCaP xenografts; 1 h after injection) was 0.68 ± 0.07, the Tumor-to-Kidneys ratio (LNCaP xenografts; 1 h after injection) was 0.11 ± 0.01 and the Tumor-to-Liver ratio (LNCaP xenografts; 1 h after injection) was 0.32 ± 0.05. It also gave a Tumor-to-Muscles ratio (LNCaP xenografts; 1 h after injection) of 6.08 ± 0.22, a Tumor-to-Salivary glands ratio (LNCaP xenografts; 1 h after injection) of 1.14 ± 0.34 and a Tumor-to-Spleen ratio (LNCaP xenografts; 1 h after injection) of 1.37 ± 0.29. The “Biodistribution, Adrenals” value (LNCaP xenografts; [4]) was 3.25 ± 0.92 %IA/g, the “Biodistribution, Blood” value (LNCaP xenografts; [4]) was 1.36 ± 0.15 %IA/g and the “Biodistribution, Femur” value (LNCaP xenografts; [4]) was 1.50 ± 0.21 %IA/g. The “Biodistribution, Heart” value (LNCaP xenografts; [4]) was 2.34 ± 0.11 %IA/g, the “Biodistribution, Intestine” value (LNCaP xenografts; [4]) was 8.78 ± 2.18 %IA/g and the “Biodistribution, Kidneys” value (LNCaP xenografts; [4]) was 8.76 ± 1.57 %IA/g. The “Biodistribution, Liver” value (LNCaP xenografts; [4]) was 14.3 ± 1.7 %IA/g, the “Biodistribution, Lung” value (LNCaP xenografts; [4]) was 5.62 ± 1.61 %IA/g and the “Biodistribution, Muscles” value (LNCaP xenografts; [4]) was 0.63 ± 0.10 %IA/g. The “Biodistribution, Pancreas” value (LNCaP xenografts; [4]) was 1.89 ± 0.34 %IA/g, the “Biodistribution, Salivary glands” value (LNCaP xenografts; [4]) was 3.25 ± 0.94 %IA/g and the “Biodistribution, Spleen” value (LNCaP xenografts; [4]) was 2.46 ± 0.47 %IA/g. For the same compound, the “Biodistribution, Stomach” value (LNCaP xenografts; [4]) was 7.52 ± 1.58 %IA/g, the “Biodistribution, Tumor” value (LNCaP xenografts; [4]) was 3.31 ± 0.26 %IA/g and the “Biodistribution, Adrenals” value (LNCaP xenografts; 4 h after injection) was 6.46 ± 2.38 %IA/g. The “Biodistribution, Blood” value (LNCaP xenografts; 4 h after injection) was 1.12 ± 0.24 %IA/g, the “Biodistribution, Femur” value (LNCaP xenografts; 4 h after injection) was 1.69 ± 0.25 %IA/g and the “Biodistribution, Heart” value (LNCaP xenografts; 4 h after injection) was 2.08 ± 0.33 %IA/g. For the same compound, the “Biodistribution, Intestine” value (LNCaP xenografts; 4 h after injection) was 7.74 ± 1.76 %IA/g, the “Biodistribution, Kidneys” value (LNCaP xenografts; 4 h after injection) was 22.1 ± 2.2 %IA/g and the “Biodistribution, Liver” value (LNCaP xenografts; 4 h after injection) was 13.9 ± 2.2 %IA/g. For the same compound, the “Biodistribution, Lung” value (LNCaP xenografts; 4 h after injection) was 4.67 ± 0.76 %IA/g, the “Biodistribution, Muscles” value (LNCaP xenografts; 4 h after injection) was 0.48 ± 0.08 %IA/g and the “Biodistribution, Pancreas” value (LNCaP xenografts; 4 h after injection) was 1.71 ± 0.23 %IA/g. The “Biodistribution, Salivary glands” value (LNCaP xenografts; 4 h after injection) was 2.31 ± 0.19 %IA/g, the “Biodistribution, Spleen” value (LNCaP xenografts; 4 h after injection) was 2.95 ± 0.73 %IA/g and the “Biodistribution, Stomach” value (LNCaP xenografts; 4 h after injection) was 7.10 ± 0.97 %IA/g. The “Biodistribution, Tumor (tumor uptake)” value (LNCaP xenografts; 4 h after injection) was 4.88 ± 0.63 %IA/g, the Tumor-to-Adrenals ratio (LNCaP xenografts; 4 h after injection) was 0.81 ± 0.22 and the Tumor-to-Blood ratio (LNCaP xenografts; 4 h after injection) was 4.56 ± 1.49. The Tumor-to-Intestine ratio (LNCaP xenografts; 4 h after injection) was 0.66 ± 0.23, the Tumor-to-Kidneys ratio (LNCaP xenografts; 4 h after injection) was 0.22 ± 0.04 and the Tumor-to-Liver ratio (LNCaP xenografts; 4 h after injection) was 0.35 ± 0.05. For the same compound, the Tumor-to-Muscles ratio (LNCaP xenografts; 4 h after injection) was 10.5 ± 2.8, the Tumor-to-Salivary glands ratio (LNCaP xenografts; 4 h after injection) was 2.13 ± 0.43 and the Tumor-to-Spleen ratio (LNCaP xenografts; 4 h after injection) was 1.73 ± 0.46. For the same compound, the “Blood values and background activity, fold higher than [^61Cu]Cu-NODAGA-PSMA-I&T” value (LNCaP xenografts; LNCaP xenografts) was “approximately 10 fold” and the logDpH7.4 [3] was −2.69 ± 0.44.

Source: publication PMC11372264, “^61Cu-PSMA–Targeted PET for Prostate Cancer: From Radiotracer Development to First-in-Human Imaging” (Journal of Nuclear Medicine, 2024)
